Patent publication US20090182019A1, “Histone deacetylase inhibitors” (The Johns Hopkins University, priority 2005, published 2009)
Counter-ions that a name gives are not always drawn.

Legend:
[1] = system: HDAC; test: Inhibition of isolated HDAC, commercial Fluor de Lys assay (HeLa cell nuclear extract); type: biochemical; settings: 1 μM inhibitor; average of three determinations
Procedure: This is a facile and rapid 96-well plate-based assay that is suitable for use as a high throughput screen. The reaction mixture contains a HeLa cell nuclear extract and a commercial substrate containing acetylated lysine side chains. The substrate and extract are incubated in the presence of the appropriate concentration of the inhibitor. Deacetylation of the substrate followed by mixing with the provided developer generates a fluorophore. Comparison of inhibited vs. control relative fluorescence using a standard plate reader is employed to determine percent HDAC activity remaining. All determinations can be carried out in triplicate, and reported values can be the average of these determinations.
Compounds were evaluated for their ability to inhibit isolated HDAC at 1 μM in the Fluor de Lys™ assay system.

[2] = system: ML-1 human myelocytic leukemia line; test: Cell viability in ML-1 cells, MTT assay; type: cell-based; settings: ML1, 3 days and 7 days of exposure, 0.1 to 100 μM, read-out: IC50, toxicity to ML-1 cells (MTT)
Text: The well characterized ML-1 human myelocytic leukemia cell line was used to obtain the results presented below in the Examples section. This line has a well characterized response to HDAC inhibitors and is amenable for use in rapid in vitro screening of compounds to evaluate growth inhibitory effects. In addition to the ML-1 cells, the well characterized HCT 116 human colon adenocarcinoma may be used. […]
The MTT (3-[4,5-dimethylthiazol-2-yl]2,5-diphenyl tetrazolium bromide) reduction assay for growth inhibition studies may also be employed. […] HCT 116 cells are seeded at a density of 5×10^4 cells/ml and ML-1 cells are seeded at 2×10^4/ml and are treated for a period of 96 hr prior to dye reduction and plate reading. […]
Compound 19 was evaluated in a series of cell viability studies in the ML-1 human myelocytic leukemia line. […] Compound 19, as well as the positive controls TSA and MS-275, were compared at concentrations between 0.1 and 100 μM, and cell viability was determined in the ML-1 cultured cell preparation at 3 days (FIG. 4) and 7 days (FIG. 5) using a standard MTT assay. […] In a separate set experiments, cell viability was determined under the same conditions by direct cell count. […]

[3] = system: ML-1 human myelocytic leukemia line; test: Cell viability in ML-1 cells, direct cell count; type: cell-based; settings: ML1, 3 and 7 days of exposure, read-out: IC50, toxicity to ML-1 cells (direct cell count)
Procedure: ML-1 cells were maintained in RPMI medium supplemented with 10% fetal calf serum, 0.1 mg/mL gentamicin, and 2 mM L-glutamine. 3×10^5 cells/ml were treated with 1 (Wako Pure Chemicals, Richmond, Va.), 2 (Mitsui Pharmaceuticals, Chiba, Japan) and the desired test compound for the concentration and time indicated in the figure legend.
Compound 19 was evaluated in a series of cell viability studies in the ML-1 human myelocytic leukemia line. The results of these studies are outlined in FIGS. 4-7. Compound 19, as well as the positive controls TSA and MS-275, were compared at concentrations between 0.1 and 100 μM, and cell viability was determined in the ML-1 cultured cell preparation at 3 days (FIG. 4) and 7 days (FIG. 5) using a standard MTT assay. […] In a separate set experiments, cell viability was determined under the same conditions by direct cell count. As before, TSA and MS-275 produced significant toxicity at both 3 and 7 days, again with IC50 values less than 10 μM.

[4] = system: HDAC; test: Inhibition of isolated HDAC, commercial Fluor de Lys assay (HeLa cell nuclear extract); type: biochemical; design: dose or concentration left out as unconfirmed; settings: TSA as positive control

CC(/C=C/C(=O)NO)=C\[C@@H](C)C(=O)c1ccc(N(C)C)cc1 [Compound 1, trichostatin] was tested, and the “Inhibition of HDAC at 1 μM (%)” value [1] was 100%, the IC50 [2] was under 10 µM and the IC50 [3] was under 10 µM.
For Nc1ccccc1NC(=O)c1ccc(CNC(=O)OCc2cccnc2)cc1 [Compound 2, MS-275], the “Inhibition of HDAC at 1 μM (%)” value [1] was 100%, the IC50 [2] was under 10 µM and the IC50 [3] was under 10 µM.
O=C(CCCCC(=O)NCCCCNCc1ccccc1-c1ccccc1)NO [Compound 5, 5-{4-[2-(Phenyl)benzyl]aminobutyl}carbamoylpentanohydroxamic Acid] was tested, and the “Inhibition of HDAC at 1 μM (%)” value [1] was 16.34%.
In the case of Cc1ccc(CNCCCCNC(=O)CCCCC(=O)NO)cc1 [Compound 7, 5-{4-[4-(Methyl)benzyl]aminobutyl}carbamoylpentanohydroxamic Acid], the “Inhibition of HDAC at 1 μM (%)” value [1] is reported as 44.17%.
O=C(CCCCC(=O)NCCCNCCCNCCCNCCCNCC1CCCCCC1)NO [Compound 9, 22-(N-[2-(Cycloheptyl)methyl]amino)-6-oxo-7,11,15,19-tetraazadocosanohydroxamic Acid] was tested, and the “Inhibition of HDAC at 1 μM (%)” value [1] was 41.03%.
With O=C(CCCCC(=O)NCCCCN(Cc1ccccc1-c1ccccc1)Cc1ccccc1-c1ccccc1)NO [Compound 10] the “Inhibition of HDAC at 1 μM (%)” value [1] was 3.74%.
For CC(C)(C)c1ccc(CNCCCCNCCCNC(=O)CCCCC(=O)NO)cc1 [Compound 11, 15-N-[(4-tert-Butyl)benzyl]amino-6-oxo-7,11-diazapentadecanohydroxamic Acid dihydrobromide], the “Inhibition of HDAC at 1 μM (%)” value [1] was 74.86% and the “Dose-response for inhibition of HDAC (relative potency)” value [4] was “essentially equipotent”.
In the case of CN(C)c1ccc(CNCCCCNC(=O)CCCCCCC(=O)NO)cc1 [Compound 12, 7-{4-[4-N,N-(Dimethylamino)benzyl]aminobutyl}-carbamoylheptanohydroxamic Acid], the “Inhibition of HDAC at 1 μM (%)” value [1] is reported as 33.89%.
For CC(C)(C)c1ccc(CNCCCCNCCCNC(=O)CCCCC(=O)O)cc1 [Compound 13], the “Inhibition of HDAC at 1 μM (%)” value [1] was 1.48%.
For CN(C)c1ccc(CN(CCCNCCCCN)C(=O)CCCCC(=O)NO)cc1 [Compound 14], the “Inhibition of HDAC at 1 μM (%)” value [1] was 59.99% and the “Dose-response for inhibition of HDAC (relative potency)” value [4] was “essentially equipotent”.
For CC(C)(C)c1ccc(CNCCCCNCCCNC(=O)CCCCCCC(=O)NO)cc1 [Compound 15, dihydrobromide], the “Inhibition of HDAC at 1 μM (%)” value [1] was 49.36%.
CN(C)c1ccc(CNCCCCNC(=O)CCCCC(=O)NO)cc1 [Compound 16, 5-{4-[4-N,N-(Dimethyl)aminobenzyl]amino}butylcarbamoylpentanohydroxamic Acid] was tested, and the “Inhibition of HDAC at 1 μM (%)” value [1] was 10.32%.
Cc1ccc(CNCCCCNC(=O)CCCCCCC(=O)NO)cc1 [Compound 17, 7-{4-[4-(Methyl)benzyl]aminobutyl}carbamoylheptanohydroxamic Acid] was tested, and the “Inhibition of HDAC at 1 μM (%)” value [1] was 53.2%.
For CN(C)c1ccc(CN(CCCCN)C(=O)CCCCCCC(=O)NO)cc1 [Compound 18, 7-{[4-(Amino)butyl]-N-[4-(dimethylaminobenzyl)-carbamoyl]}heptanohydroxamic Acid], the “Inhibition of HDAC at 1 μM (%)” value [1] was 15.6%.
For O=C(CCCCC(=O)NCCCNCCCCNCCC(c1ccccc1)c1ccccc1)NO [Compound 20, 15-N-[4-(3,3-diphenyl)propyl]amino-6-oxo-7,11-diazapentadecanohydroxamic Acid dihydrobromide], the “Inhibition of HDAC at 1 μM (%)” value [1] was 19.75%.
For O=C(CCCCCCC(=O)NCCCNCCCNCCCNCCC(c1ccccc1)c1ccccc1)NO [Compound 67], the “Inhibition of HDAC at 1 μM (%)” value [1] was 55%.
CN(C)c1ccc(CCNCCCCNCCCNC(=O)CCCCCCC(=O)NO)cc1 [Compound 68] was tested, and the “Inhibition of HDAC at 1 μM (%)” value [1] was 46%.
With O=C(CCCCCCCCC(=O)NCCCNCCCCNCCC(c1ccccc1)c1ccccc1)NO [Compound 69] the “Inhibition of HDAC at 1 μM (%)” value [1] was 73%.
For O=C(CCCCCC(=O)NCCCNCCCCNCCC(c1ccccc1)c1ccccc1)NO [Compound 70], the “Inhibition of HDAC at 1 μM (%)” value [1] was 46%.
With O=C(CCCCCCCC(=O)NCCCNCCCCNCCC(c1ccccc1)c1ccccc1)NO [Compound 71] the “Inhibition of HDAC at 1 μM (%)” value [1] was 54%.
With CN(C)c1ccc(CN(CCCNCCCCN)C(=O)CCCCCCC(=O)NO)cc1 [Compound 72] the “Inhibition of HDAC at 1 μM (%)” value [1] was 58%.
